In patent US9302999B2, “Substituted triazoles as herbicides” (E. I. DU PONT DE NEMOURS AND COMPANY, priority 2012, dated 2016):

Tests used:
Assay type in all cases: in vivo
[1] = tested on: barnyardgrass (Echinochloa crus-galli); assay: Test C flooded paddy test: barnyardgrass; conditions: scale 0 to 100 (0 no effect, 100 complete control)
Method in brief: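 Plants at 2-leaf stage in pots flooded 3 cm above soil; compounds applied directly into the paddy water, depth maintained. Visual rating against controls after 13–15 days in greenhouse, scale 0 (no effect) to 100 (complete control).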

[2] = tested on: deadnettle (henbit deadnettle, Lamium amplexicaule); assay: Test D pre-/postemergence: deadnettle
Method in brief: (§1)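 Species were sown in silt loam and sprayed preemergence, or grown in peat/vermiculite medium and sprayed postemergence at the 1- to 4-leaf stage (2–18 cm), with compounds in a surfactant-containing solvent. Injury was visually rated against untreated controls after 14–21 days, on a 0 (no effect) to 100 (complete control) scale.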

[3] = tested on: Russian thistle (Salsola iberica); assay: Test D pre-/postemergence: Russian thistle
Excerpt: (§2) Seeds of plant species selected from bluegrass (annual bluegrass, Poa annua), blackgrass (Alopecurus myosuroides), canarygrass (Phalaris minor), chickweed (common chickweed, Stellaria media), galium (catchweed bedstraw, Galium aparine), bromegrass, downy (downy bromegrass, Bromus tectorum), field poppy (Papaver rhoeas), field violet (Viola arvensis), foxtail, green (green foxtail, Setaria viridis), deadnettle (henbit deadnettle, Lamium amplexicaule), ryegrass, Italian (Italian ryegrass, Lolium multiflorum), kochia (Kochia scoparia), lambsquarters (Chenopodium album), oilseed rape (Brassica napus), pigweed (Amaranthus retroflexus), Russian thistle (Salsola iberica), chamomile (scentless chamomile, Matricaria inodora), speedwell (bird's-eye speedwell, Veronica persica), barley, spring (spring barley, Hordeum vulgare), wheat, spring (spring wheat, Triticum aestivum), buckwheat, wild (wild buckwheat, Polygonum convolvulus), mustard, wild (wild mustard, Sinapis arvensis), oat, wild (wild oat, Avena fatua), radish, wild (wild radish, Raphanus raphanistrum), windgrass (Apera spica-venti), barley, winter (winter barley, Hordeum vulgare), and wheat, winter (winter wheat, Triticum aestivum) were planted into a silt loam soil and treated preemergence with test chemicals formulated in a non-phytotoxic solvent mixture which included a surfactant. At the same time, these same crop and weed species were planted in pots containing the planting medium comprising spaghnum peat moss, vermiculite, wetting agent and starter nutrients and treated with postemergence applications of the test chemicals formulated in the same manner. Plants ranged in height from 2 to 18 cm (1- to 4-leaf stage).
(§3) Treated plants and controls were maintained in a controlled growth environment for 14 to 21 days after which time all species were compared to controls and visually evaluated. Plant response ratings, summarized in Table D, are based on a scale of 0 to 100 where 0 is no effect and 100 is complete control. A dash (-) response means no test result.

[4] = tested on: oat, wild (wild oat, Avena fatua); assay: Test D pre-/postemergence: oat, wild
Excerpt: as §2, §3

[5] = tested on: windgrass (Apera spica-venti); assay: Test D pre-/postemergence: windgrass
Method in brief: as §1

[6] = tested on: soybean (Glycine max); assay: Test F pre-/postemergence: soybean
Excerpt: (§4) Seeds of plant species selected from corn (Zea mays), soybean (Glycine max), velvetleaf (Abutilon theophrasti), lambsquarters (Chenopodium album), poinsettia, wild (wild poinsettia, Euphorbia heterophylla), pigweed, palmer (palmer pigweed, Amaranthus palmeri), waterhemp (common waterhemp, Amaranthus rudis), surinam grass (Brachiaria decumbens), crabgrass, Brazil (Brazilian crabgrass, Digitaria horizontalis), panicum, fall (fall panicum Panicum dichotomiflorum), crabgrass, large (large crabgrass, Digitaria sanguinalis), foxtail, giant (giant foxtail, Setaria faberii), foxtail, green (green foxtail Setaria viridis), goosegrass (Eleusine indica), ragweed (common ragweed, Ambrosia elatior), barnyardgrass (Echinochloa crus-galli), sandbur (southern sandbur, Cenchrus echinatus), arrowleaf sida (Sida rhombifolia), ryegrass, Italian (Italian ryegrass, Lolium multiflorum), dayflower, VA (Virginia (VA) dayflower, Commelina virginica), field bindweed (Convolvulus arvensis), cocklebur (common cocklebur, Xanthium strumarium), morningglory (Ipomoea coccinea), nightshade (eastern black nightshade, Solanum ptycanthum), kochia (Kochia scoparia), nutsedge, yellow (yellow nutsedge, Cyperus esculentus), johnsongrass (Sorghum halepense), smartweed (ladysthumb smartweed, Polygonum persicaria), and beggarticks (hairy beggarticks, Bidens pilosa), were planted into a silt loam soil and treated preemergence with test chemicals formulated in a non-phytotoxic solvent mixture which included a surfactant. At the same time, plants selected from these crop and weed species and also pigweed (Amaranthus retroflexus), waterhemp_RES1 (ALS/Triazine resistant common waterhemp, Amaranthus rudis) and waterhemp_RES2 (ALS/HPPD resistant common waterhemp, Amaranthus rudis) were planted in pots containing a planting medium comprising spaghnum peat moss, vermiculite, wetting agent and starter nutrients treated with postemergence applications of some of the test chemicals formulated in the same manner. Plants ranged in height from 2 to 18 cm for postemergence treatments (1- to 4-leaf stage).
as §3, with “greenhouse” for “controlled growth environment”, “days,” for “days”, “E,” for “D,”

[7] = tested on: waterhemp (common waterhemp, Amaranthus rudis); assay: Test F pre-/postemergence: waterhemp; conditions: Preemergence
Excerpt: as §4
as §3, with “greenhouse” for “controlled growth environment”, “days,” for “days”, “E,” for “D,”

[8] = tested on: arrowleaf sida (Sida rhombifolia); assay: Test F pre-/postemergence: arrowleaf sida
Excerpt: as §4
as §3, with “greenhouse” for “controlled growth environment”, “days,” for “days”, “E,” for “D,”

[9] = Postemergence, 31 g ai/ha, scale 0 to 100 (0 no effect, 100 complete control)
[10] = Postemergence, 62 g ai/ha, scale 0 to 100 (0 no effect, 100 complete control)
[11] = Postemergence, 125 g ai/ha, scale 0 to 100, 0 no effect, 100 complete control
[12] = Postemergence, 250 g ai/ha, scale 0 to 100 (0 no effect, 100 complete control)
[13] = Postemergence, 16 g ai/ha, scale 0 to 100
[14] = Preemergence, 16 g ai/ha, scale 0 to 100, 0 no effect, 100 complete control
[15] = Preemergence, 31 g ai/ha, scale 0 to 100, 0 no effect, 100 complete control
[16] = Preemergence, 62 g ai/ha, scale 0 to 100
[17] = Preemergence, 125 g ai/ha, scale 0 to 100
[18] = Preemergence, 250 g ai/ha, scale 0 to 100
[19] = Postemergence, 8 g ai/ha, scale 0 to 100
[20] = Postemergence, 31 g ai/ha, scale 0 to 100
[21] = Postemergence, 125 g ai/ha, scale 0 to 100

## Cc1nn(-c2ccc(C(F)(F)F)cc2)nc1Oc1ccnc(C(F)(F)F)c1 [Compound 120]
[1]; Flood (flooded paddy test), 125 g ai/ha, visual rating after 13 to 15 days
  Plant response rating, Barnyardgrass: 80
[1]; Flood (flooded paddy test), 250 g ai/ha, visual rating after 13 to 15 days
  Plant response rating, Barnyardgrass: 80
[1]; Flood, 62 g ai/ha
  Plant response rating, Barnyardgrass: 65
[2]; [9]
  Plant response rating: Deadnettle: 90
[2]; [10]
  Plant response rating: Deadnettle: 90
[2]; [11]
  Plant response rating: Deadnettle: 100
[2]; [12]
  Plant response rating: Deadnettle: 100
[2]; [13]
  Plant response rating, Deadnettle: 30
[2]; [14]
  Plant response rating, Deadnettle: 0
[2]; [15]
  Plant response rating, Deadnettle: 85
[2]; [16]
  Plant response rating, Deadnettle: 100
[2]; [17]
  Plant response rating, Deadnettle: 100
[2]; [18]
  Plant response rating, Deadnettle: 100
[3]; [9]
  Plant response rating: Russian Thistle: 95
[3]; [10]
  Plant response rating: Russian Thistle: 98
[3]; [11]
  Plant response rating: Russian Thistle: 100
[3]; [12]
  Plant response rating: Russian Thistle: 100
[3]; [13]
  Plant response rating, Russian Thistle: 95
[3]; [14]
  Plant response rating, Russian Thistle: 100
[3]; [15]
  Plant response rating, Russian Thistle: 100
[3]; [16]
  Plant response rating, Russian Thistle: 100
[3]; [17]
  Plant response rating, Russian Thistle: 100
[3]; [18]
  Plant response rating, Russian Thistle: 100
[4]; [9]
  Plant response rating: Oat, Wild: 10
[4]; [10]
  Plant response rating: Oat, Wild: 20
[4]; [11]
  Plant response rating: Oat, Wild: 35
[4]; [12]
  Plant response rating: Oat, Wild: 70
[4]; [13]
  Plant response rating, Oat, Wild: 10
[4]; [14]
  Plant response rating, Oat, Wild: 0
[4]; [15]
  Plant response rating, Oat, Wild: 5
[4]; [16]
  Plant response rating, Oat, Wild: 25
[4]; [17]
  Plant response rating, Oat, Wild: 55
[4]; [18]
  Plant response rating, Oat, Wild: 100
[5]; [9]
  Plant response rating: Windgrass: 15
[5]; [10]
  Plant response rating: Windgrass: 95
[5]; [11]
  Plant response rating: Windgrass: 100
[5]; [12]
  Plant response rating: Windgrass: 100
[5]; [13]
  Plant response rating, Windgrass: 5
[5]; [14]
  Plant response rating, Windgrass: 0
[5]; [15]
  Plant response rating, Windgrass: 80
[5]; [16]
  Plant response rating, Windgrass: 100
[5]; [17]
  Plant response rating, Windgrass: 100
[5]; [18]
  Plant response rating, Windgrass: 100

## COc1nn(-c2cccc(F)c2)nc1Cc1ccnc(C(F)(F)F)c1 [Compound 139]
[6]; [14]
  Plant response rating, Soybean: 0
[6]; [15]
  Plant response rating, Soybean: 0
[6]; [17]
  Plant response rating, Soybean: 0
[6]; [18]
  Plant response rating, Soybean: 35
[7]; 16 g ai/ha, scale 0 to 100, 0 no effect, 100 complete control
  Plant response rating, Waterhemp: 70
[7]; 31 g ai/ha, scale 0 to 100, 0 no effect, 100 complete control
  Plant response rating, Waterhemp: 100
[7]; 125 g ai/ha, scale 0 to 100
  Plant response rating, Waterhemp: 100
[7]; 250 g ai/ha, scale 0 to 100
  Plant response rating, Waterhemp: 100
[8]; [14]
  Plant response rating, Arrowleaf Sida: 0
[8]; [15]
  Plant response rating, Arrowleaf Sida: 0
[8]; [16]
  Plant response rating, Arrowleaf Sida: 0
[8]; [17]
  Plant response rating, Arrowleaf Sida: 0
[8]; [18]
  Plant response rating, Arrowleaf Sida: 0

## Cc1nn(-c2ccnc(Cl)c2)nc1Cc1ccnc(C(F)(F)F)c1 [Compound 141]
[6]; [19]
  Plant response rating, Soybean: 50
[6]; [13]
  Plant response rating, Soybean: 70
[6]; [20]
  Plant response rating, Soybean: 80
[6]; [21]
  Plant response rating, Soybean: 85
[8]; [19]
  Plant response rating, Arrowleaf Sida: 40
[8]; [13]
  Plant response rating, Arrowleaf Sida: 50
[8]; [20]
  Plant response rating, Arrowleaf Sida: 60
[8]; Postemergence, 62 g ai/ha, scale 0 to 100
  Plant response rating, Arrowleaf Sida: 70
[8]; [21]
  Plant response rating, Arrowleaf Sida: 75
